Results reported in BindingDB's records for doi:10.1021/acs.jmedchem.9b00963 (Hong Kong Polytechnic University, 2019).

Legend:
[1] = Inhibition of BCRP (unknown origin) transfected in HEK293/R2 cells assessed as reversal of topotecan resistance after 5 days by MTS/PMS assay
[2] = Inhibition of P-gp (unknown origin) expressed in human LCC6MDR cells assessed as reversal of paclitaxel resistance after 5 days by MTS/PMS assay
[3] = Inhibition of BCRP in human MCF7/MX100 cells assessed as reversal of topotecan resistance after 5 days by MTS/PMS assay
[4] = Inhibition of BCRP (unknown origin) transfected in human HEK293/R2 cells assessed as potentiation of topotecan-induced cytotoxicity measured as topotecan IC50 at 1 uM (Rvb = 531.5 +/- 180 nM)
[5] = Inhibition of P-gp (unknown origin) expressed in human LCC6MDR cells assessed as potentiation of mitoxantrone-induced cytotoxicity after 5 days by MTS/PMS assay
[6] = Inhibition of BCRP (unknown origin) expressed in human HEK293/R2 cells assessed as potentiation of mitoxantrone-induced cytotoxicity after 5 days by MTS/PMS assay
[7] = Inhibition of MRP1 in human 2008/MRP1 cells assessed as reduction in cell viability after 5 days by MTS/PMS assay
[8] = Inhibition of MDR in human LCC6MDR cells assessed as reduction in cell viability after 5 days by MTS/PMS assay

SMILES	EC50 [1] [nM]	EC50 [2] [nM]	EC50 [3] [nM]	IC50 [4] [nM]	EC50 [5] [nM]	EC50 [6] [nM]	IC50 [7] [nM]	IC50 [8] [nM]
O=c1cc(-c2ccccc2)oc2cc(OCCOCc3cn(CCOCCOCCOc4ccc(-c5oc6ccccc6c(=O)c5OCc5ccccc5)cc4)nn3)ccc12	38	383	25	–	–	–	–	–
O=c1cc(-c2ccccc2)oc2cc(OCCN(Cc3ccccc3)Cc3cn(CCOCCOc4ccc(-c5cc(=O)c6cc(F)ccc6o5)cc4)nn3)ccc12	48	285	54	–	–	–	–	–
O=c1cc(-c2ccc(OCCOCCn3cc(CCCCOc4ccc5c(=O)cc(-c6ccccc6)oc5c4)nn3)cc2)oc2ccccc12	52	321	25	–	–	–	–	–
Cc1ccc2oc(-c3ccc(OCCCCc4cn(CCOCCOc5ccc(-c6cc(=O)c7ccccc7o6)cc5)nn4)cc3)cc(=O)c2c1	67	370	33	–	–	–	–	–
O=c1cc(-c2ccc(OCCOCCOCCn3cc(CN(CCOc4ccc5c(=O)cc(-c6ccccc6)oc5c4)Cc4ccccc4)nn3)cc2)oc2ccccc12	37	275	17	–	–	–	–	–
O=c1cc(-c2ccc(OCCOCCn3cc(CCCOc4ccc5c(=O)cc(-c6ccccc6)oc5c4)nn3)cc2)oc2ccccc12	67	300	30	–	–	–	–	–
O=c1cc(-c2ccccc2)oc2cc(OCCCc3cn(CCOCCOc4ccc5c(=O)cc(-c6ccccc6)oc5c4)nn3)ccc12	42	490	22	–	–	–	–	–
O=c1cc(-c2ccccc2)oc2cc(OCCCc3cn(CCOCCOCCOc4ccc(-c5cc(=O)c6cc(F)ccc6o5)cc4)nn3)ccc12	38	328	98	–	–	–	–	–
Cc1ccc2oc(-c3ccc(OCCCCc4cn(CCOCCOCCOc5ccc(-c6cc(=O)c7cc(C)ccc7o6)cc5)nn4)cc3)cc(=O)c2c1	54	526	230	–	–	–	–	–
Cc1ccc2oc(-c3ccc(OCCCCc4cn(CCOCCOCCOc5ccc(-c6cc(=O)c7cc(F)ccc7o6)cc5)nn4)cc3)cc(=O)c2c1	58	747	320	–	–	–	–	–
Cc1ccc2oc(-c3ccc(OCCCCc4cn(CCN(CCOc5ccc(-c6cc(=O)c7ccccc7o6)cc5)Cc5ccccc5)nn4)cc3)cc(=O)c2c1	70	679	39	–	–	–	–	–
COC(=O)c1cccc(COc2c(-c3ccc(OCCOCCn4cc(CN5CCCN(Cc6cn(CCOCCOc7ccc(-c8oc9ccccc9c(=O)c8OCc8cccc(C(=O)OC)c8)cc7)nn6)CC5)nn4)cc3)oc3ccccc3c2=O)c1	108	573	55	–	–	–	–	–
COC(=O)c1cccc(COc2c(-c3ccc(OCCOCCOCCn4cc(CN(Cc5cn(CCOCCOCCOc6ccc(-c7oc8ccccc8c(=O)c7OCc7cccc(C(=O)OC)c7)cc6)nn5)c5ccccc5)nn4)cc3)oc3ccccc3c2=O)c1	5.8	> 1000	3.9	–	–	–	–	–
O=c1cc(-c2ccccc2)oc2cc(OCCCCc3cn(CCOCCOc4ccc5c(=O)cc(-c6ccccc6)oc5c4)nn3)ccc12	34	365	39	–	–	–	–	–
Cc1ccc2oc(-c3ccc(OCCCCc4cn(CCOc5ccc6c(=O)cc(-c7ccccc7)oc6c5)nn4)cc3)cc(=O)c2c1	60	204	223	–	–	–	–	–
O=c1cc(-c2ccccc2)oc2cc(OCCOCCOCCn3cc(CN(Cc4ccccc4)Cc4cn(CCOCCOCCOc5ccc6c(=O)cc(-c7ccccc7)oc6c5)nn4)nn3)ccc12	83	> 1000	250	–	–	–	–	–
COC(=O)c1cccc(COc2c(-c3ccc(OCCOCCn4cc(-c5ccc(-c6cn(CCOCCOc7ccc(-c8oc9ccccc9c(=O)c8OCc8cccc(C(=O)OC)c8)cc7)nn6)cc5)nn4)cc3)oc3ccccc3c2=O)c1	14	> 1000	27	–	–	–	–	–
COC(=O)c1cccc(COc2c(-c3ccc(OCCOCCn4cc(CCCc5cn(CCOCCOc6ccc(-c7oc8ccccc8c(=O)c7OCc7cccc(C(=O)OC)c7)cc6)nn5)nn4)cc3)oc3ccccc3c2=O)c1	6.1	> 1000	2.4	19	–	–	–	–
COC(=O)c1cccc(COc2c(-c3ccc(OCCOCCn4cc(-c5cccc(-c6cn(CCOCCOc7ccc(-c8oc9ccccc9c(=O)c8OCc8cccc(C(=O)OC)c8)cc7)nn6)c5)nn4)cc3)oc3ccccc3c2=O)c1	2.2	> 1000	1.1	25	> 2000	11	–	–
COC(=O)c1cccc(COc2c(-c3ccc(OCCOCCn4cc(CN(Cc5ccccc5)Cc5cn(CCOCCOc6ccc(-c7oc8ccccc8c(=O)c7OCc7cccc(C(=O)OC)c7)cc6)nn5)nn4)cc3)oc3ccccc3c2=O)c1	5.3	> 1000	3.3	15	–	–	–	–

SMILES	EC50 [1] [nM]	EC50 [2] [nM]	EC50 [3] [nM]	IC50 [4] [nM]	EC50 [5] [nM]	EC50 [6] [nM]	IC50 [7] [nM]	IC50 [8] [nM]
COC(=O)c1cccc(COc2c(-c3ccc(OCCOCCn4cc(COCc5cn(CCOCCOc6ccc(-c7oc8ccccc8c(=O)c7OCc7cccc(C(=O)OC)c7)cc6)nn5)nn4)cc3)oc3ccccc3c2=O)c1	4.2	> 1000	2.1	20	–	–	–	–
COC(=O)c1cccc(COc2c(-c3ccc(OCCOCCn4cc(CCCOc5ccc6c(=O)cc(-c7ccccc7)oc6c5)nn4)cc3)oc3ccccc3c2=O)c1	7.2	616	24	–	–	–	–	–
O=c1cc(-c2ccccc2)oc2cc(OCCCc3cn(CCOCCOCCOc4ccc5c(=O)cc(-c6ccccc6)oc5c4)nn3)ccc12	57	515	177	–	–	–	–	–
O=c1cc(-c2ccc(OCCCc3cn(CCOCCOCCOc4ccc(-c5oc6ccccc6c(=O)c5OCc5ccccc5)cc4)nn3)cc2)oc2cc(F)ccc12	25	344	47	–	–	–	–	–
COC(=O)c1cccc(COc2c(-c3ccc(OCCOCCn4cc(CCCOc5ccc(-c6cc(=O)c7ccc(F)cc7o6)cc5)nn4)cc3)oc3ccccc3c2=O)c1	9.6	481	6.5	–	–	–	–	–
Cc1ccc2oc(-c3ccc(OCCCCc4cn(CCOCCOc5ccc(-c6oc7ccccc7c(=O)c6OCc6ccccc6)cc5)nn4)cc3)cc(=O)c2c1	33	605	24	–	–	–	–	–
O=c1cc(-c2ccc(OCCOCCOCCn3cc(CCCCOc4ccc5c(=O)cc(-c6ccccc6)oc5c4)nn3)cc2)oc2ccccc12	47	360	18	–	–	–	–	–
O=c1cc(-c2ccccc2)oc2cc(OCCCCc3cn(CCOCCOCCOc4ccc(-c5cc(=O)c6cc(F)ccc6o5)cc4)nn3)ccc12	44	325	31	–	–	–	–	–
O=c1cc(-c2ccccc2)oc2cc(OCCCCc3cn(CCOCCOc4ccc(-c5cc(=O)c6cc(F)ccc6o5)cc4)nn3)ccc12	43	264	18	–	–	–	–	–
O=c1cc(-c2ccccc2)oc2cc(OCCCCc3cn(CCOCCOCCOc4ccc5c(=O)cc(-c6ccccc6)oc5c4)nn3)ccc12	47	288	94	–	–	–	–	–
O=c1cc(-c2ccccc2)oc2cc(OCCOCCn3cc(COCCOc4ccc5c(=O)cc(-c6ccccc6)oc5c4)nn3)ccc12	195	> 1000	308	–	–	–	–	–
O=c1cc(-c2ccccc2)oc2cc(OCCOCCOCCn3cc(COCCOc4ccc5c(=O)cc(-c6ccccc6)oc5c4)nn3)ccc12	145	928	59	–	–	–	–	–
Cc1ccc2oc(-c3ccc(OCCOCCOCCn4cc(COCCOc5ccc6c(=O)cc(-c7ccccc7)oc6c5)nn4)cc3)cc(=O)c2c1	90	773	145	–	–	–	–	–
Cc1ccc2oc(-c3ccc(OCCCCc4cn(CCOCCOCCOc5ccc(-c6oc7ccccc7c(=O)c6OCc6ccccc6)cc5)nn4)cc3)cc(=O)c2c1	24	422	20	–	–	–	–	–
Cc1ccc2oc(-c3ccc(OCCCCc4cn(CCN(CCOc5ccc6c(=O)cc(-c7ccccc7)oc6c5)Cc5ccccc5)nn4)cc3)cc(=O)c2c1	543	> 1000	372	–	–	–	–	–
Cc1ccc2oc(-c3ccc(OCCOCCOCCn4cc(CCCCOc5ccc6c(=O)cc(-c7ccccc7)oc6c5)nn4)cc3)cc(=O)c2c1	33	198	46	–	–	–	–	–
Cc1ccc2oc(-c3ccc(OCCOCCOCCOCCOCCOc4ccc(-c5cc(=O)c6cc(C)ccc6o5)cc4)cc3)cc(=O)c2c1 [1,16-Bis[40-((6-methyl)-4H-chromen-4-on-2-yl)phenyl]-1,4,7,10,13,16-hexaoxahexadecane]	65	264	63	–	–	–	–	–
COc1ccc2c3c([nH]c2c1)[C@H](CC(C)C)N1C(=O)[C@H](CCC(=O)OC(C)(C)C)NC(=O)[C@@H]1C3 [Ko143]	–	1060	–	–	943	–	–	–
O=C1c2c(O)ccc(O)c2C(=O)c2c(NCCNCCO)ccc(NCCNCCO)c21 [SMR000058480]	–	–	–	–	–	–	28	1500
